Data on one molecule can be found in patent US20060029989A1, “Targeting cells having Mad2 mutation for treatment and/or prevention of disease” (Regents of the University of California, priority 1999, published 2006).

Assay [1] has as its system glioblastoma cells. Kind of assay: growth, replication and phenotype of glioblastoma cells under continuous drug treatment. In kind it is cell-based, human.
Assay [2] relates to established yeast models (mutated MAD1/MAD2 and secondary genes). The assay is described as follows: yeast-based drug screening assay (control system showing lethality versus test system with drug added). Format: cell-based. The settings on record: among tested compounds; pharmaceutically acceptable concentrations.
Experimental: In essence assay consists of control system in which one observes lethality and test system to which a drug is added and its effect is evaluated based on difference between control and test system. If drug enhances lethality or reverses it this drug is considered as a candidate drug that may be specific in the biochemical pathway controlled by primary and secondary genes.
Assay [3] concerns glioblastoma cells. Kind of assay: tumorigenicity of treated tumor cells in athymic mice. In kind it is in vivo.

Consider `O=C([O-])CCCc1ccccc1.[Na+]` [phenylbutyrate, 4-phenylbutyrtic acid sodium salt], for which the inhibition of growth result in assay [1] (4 mM, after 4-6 days of continuous treatment, glioblastoma cells) is on record as “approximately 50%”. Moreover, the tumor cell replication entry in assay [1] (glioblastoma cells, phenylacetate metabolites compared) is “inhibited tumor cell replication”. Moreover, in assay [1] (tumor cells), the “cell maturation and phenotype (cytoskeletal intermediate filaments, anchorage-independence)” value is “promoted cell maturation and reversion to a nonmalignant phenotype”. Moreover, the “activity in yeast-based screening” value in assay [2] is on record as “active at pharmaceutically acceptable concentrations”. Further, the “tumorigenicity in athymic mice” value in assay [3] is “reduced tumorigenicity”.
